Assay results as given in patent publication US20230172915A1, “DHODH INHIBITOR FOR THE TREATMENT OF COVID-19” (priority 2020, published 2023).
Read-outs that look alike come from different tables or passages of the source.

Experiments:
[1] = Rhesus monkey single oral dose PK; format: in vivo, Rhesus monkeys; conditions: single oral 10 mg/kg dose
Method: FIG. 10 is a plot of PTC299 plasma concentration (µg/mL) vs hours of plasma dihydroorotate (DHO) and PTC299 concentrations after a single dose of PTC299 was administered to a single monkey.
The dosing regimen used in the current study was also supported by experiments performed in Rhesus monkeys. Monkeys were given a single oral 10 mg/kg dose of PTC299. The DHO plasma level increased after dosing, peaked at 24 hours and then decreased, as illustrated in FIG. 10. […] The AUC for PTC299 is consistent with that observed in the healthy volunteer study PTC299-ONC-002-HV indicating this exposure would result in inhibition of DHODH and supports the use of the 200 mg BID dosing regimen in the current study.

[2] = Phase 1 multiple dose study PTC299-ONC-002-HV in healthy volunteers (PK, safety); format: in vivo, human; conditions: for AUC: read-out: AUCO-4
Method: The PK of the 200 mg BID dosed for 7 days and 50 mg for 7 days was evaluated in a phase 1, escalating, multiple dose, safety, tolerability, and PK study, PTC299-ONC-002-HV (N=32; n=24 received PTC299 and 8 received placebo).
Study PTC299-ONC-002-HV had 2 stages; in Stage 1, doses ranged from 0.3 to 1.2 mg/kg BID, and in Stage 2, a 1.6 mg/kg TID dose was administered. Patients received the capsule formulation of PTC299 for 7 days in both stages. Dose of 200 mg tablet is approximately 1.2 mg/kg capsule whereas 50 mg tablet is approximately 0.3 mg/kg of capsule formulation.

[3] = test system: primary acute myeloid leukemia (AML) blast cells; assay: Primary AML blast cell assay with and without uridine; format: cell-based; conditions: uridine 0, 3, 10, 30, or 100 µM
Method: FIG. 5 is a plot showing the fraction of total blasts relative to DMSO control vs PTC299 concentration in nM, from an assay of the ability of PTC299 to suppress DHODH activity in the presence of increasing concentrations of uridine (0, 3, 10, 30, or 100 µM) .
The ability of PTC299 to inhibit DHODH was further tested using primary acute myeloid leukemia (AML) blast cells that are reliant upon the de novo pyrimidine nucleotide pathway to obtain pyrimidine nucleotides.

[4] = test system: Hepatitis C virus (replicon); assay: Antiviral activity, Hepatitis C virus replicon (Huh7 cells); format: cell-based; conditions: Huh-7
[5] = Relative bioavailability tablet versus capsule; conditions: in vivo, oral; administered with food; read-out: relative bioavailability of tablet formulation compared with the capsule
Method: The rationale for this dosing is based on the following: • The dosing regimen utilizes results from PTC’s extensive clinical, safety, and clinical pharmacology experience with the capsule formulation of PTC299 that was used in prior solid tumor clinical studies. • The tablet formulation has approximately 40% relative bioavailability compared with the capsule when administered with food. • The 200 mg BID dosing for 7 days have been tested previously in healthy volunteers in study PTC299-ONC-002-HV with no serious adverse events. […] The dosing of 200 mg BID for the first 7 days will raise the exposure of the drug quickly to accommodate the need for rapid onset of PTC299 activity..

[6] = In vivo rat micronucleus assay
[7] = test system: Respiratory syncytial virus; assay: Antiviral activity, Respiratory syncytial virus (Hep2 cells); format: cell-based; conditions: human respiratory syncytial virus, HEp-2
[8] = AML phase 1b study PTC299-HEM-001-LEU, PK; format: in vivo, human; conditions: 80 mg QD tablet loading dose for 7 days followed by 40 mg maintenance dose (cohort 2), AML patients
Method: It was anticipated that elimination would not be saturated with 50 mg tablet QD after 7 days of 200 mg tablet BID dosing. This is supported by results from the ongoing AML open-label, non-randomized, phase 1b study, PTC299-HEM-001-LEU.

[9] = test system: PBMCs plus venular endothelial cells (sAg); assay: BioMAP profiling, SAg system; format: cell-based; conditions: for inhibition at 0.01 µM: 10 nM; for inhibition at 0.1 µM: 100 nM
Method: The effect of PTC299 on cytokine production was assessed using BioMAP profiling (BioSeek, now part of Eurofins). The BioMAP system is comprised of complex co-cultures of primary peripheral blood mononuclear cells (PBMCs) with other cell types including B cells, fibroblasts, and endothelial cells allowing for the measurement of physiologically relevant biomarker readouts of the activity of a compound. Using this system, cytokine production was evaluated in the following models of primary cell disease models: • Peripheral blood mononuclear cells (PBMCs) plus venular endothelial cells (sAg) • PBMCs plus B cells (BT) • PBMCs plus fibroblasts (HDFSAg) • TH2 cells plus venular endothelial cells (/TH2).
Abbreviations in Table 4: BCR, B-cell receptor; BT System, co-culture of CD19+ B cells and PBMC that utilizes BCR stimulation and sub-mitogenic TCR stimulation; HDFSAg system, co-culture of human primary dermal fibroblasts and PBMC that is stimulated with sub-mitogenic TCR levels; IL, interleukin; PBMC, Peripheral Blood Mononuclear Cell; SAg system, co-culture of endothelial cells and PBMC stimulated with mitogenic levels of TCR ligands; TCR, T-cell receptor; /TH2 system, co-culture of endothelial cells and Th2 blasts stimulated with TCR ligands and cytokines; Th2, T helper type 2; VEGF, vascular endothelial growth factor.

West Nile virus = assay: Antiviral activity, West Nile virus (Vero cells); format: cell-based
[10] = Study PTC299-ONC-007-NF2: PTC299 plasma level; conditions: human, oral, 100 mg BID
[11] = human, plasma, oral, 0.3 mg/kg, 0.3 mg/kg BID, Day 1, capsule
[12] = human, plasma, oral, 0.3 mg/kg, 0.3 mg/kg BID, Day 7, capsule
[13] = human, plasma, oral, 0.6 mg/kg, 0.6 mg/kg BID, Day 1, capsule
[14] = human, plasma, oral, 0.6 mg/kg, 0.6 mg/kg BID, Day 7, capsule
[15] = human, plasma, oral, 1.2 mg/kg, 1.2 mg/kg BID, Day 1, capsule
[16] = human, plasma, oral, 1.2 mg/kg, 1.2 mg/kg BID, Day 7, capsule
[17] = human, plasma, oral, 1.6 mg/kg, 1.6 mg/kg TID, Day 1, capsule
[18] = human, plasma, oral, 1.6 mg/kg, 1.6 mg/kg TID, Day 7, capsule

Structure (SMILES): COc1ccc([C@H]2c3[nH]c4ccc(Cl)cc4c3CCN2C(=O)Oc2ccc(Cl)cc2)cc1 [PTC299, 4-chlorophenyl (S)-6-chloro-1-(4-methoxyphenyl)-1,3,4,9-tetrahydro-2H-pyrido[3,4-b]indole-2-carboxylate]
- AUC ([1]; plasma, read-out: AUC of PTC299): 22500 ng·h/mL
- Cmax ([1]; plasma, read-out: Cmax of PTC299): 2510 ng/mL
- half-life ([1]; plasma, read-out: Half-life of PTC299 (converted)): 33 h
- Tmax of PTC299 [1]: 2 hr post-dose
- Tl/2 ([2]; 0.3 mg/kg BID, Day 7, capsule): 164 h
- Tmax ([2]; 0.6 mg/kg BID, Day 1, capsule): 3.0 h
- Tl/2 ([2]; 0.6 mg/kg BID, Day 7, capsule): 210 h
- Tl/2 ([2]; 1.2 mg/kg BID, Day 7, capsule): 228 h
- Tl/2 ([2]; 1.6 mg/kg TID, Day 7, capsule): 225 h
- SAEs during study PTC299-ONC-002-HV ([2]; healthy volunteers, 7 days, 0.3 to 1.2 mg/kg BID and 1.6 mg/kg TID): no SAEs occurred
- Cmax [2, 11]: 280 ng/mL
- AUC [2, 11]: 4310 ng·h/mL
- Tmax ([2]; human, plasma, oral, 0.3 mg/kg, 0.3 mg/kg BID, Day 1, capsule, read-out: Tmax): 4 h
- Cmax [2, 12]: 510 ng/mL
- AUC [2, 12]: 8440 ng·h/mL
- Tmax ([2]; human, plasma, oral, 0.3 mg/kg, 0.3 mg/kg BID, Day 7, capsule, read-out: Tmax): 3.5 h
- Cmax [2, 13]: 710 ng/mL
- AUC [2, 13]: 10100 ng·h/mL
- Cmax [2, 14]: 1110 ng/mL
- AUC [2, 14]: 18600 ng·h/mL
- Tmax ([2]; human, plasma, oral, 0.6 mg/kg, 0.6 mg/kg BID, Day 7, capsule, read-out: Tmax): 4 h
- Cmax [2, 15]: 1140 ng/mL
- AUC [2, 15]: 18000 ng·h/mL
- Tmax ([2]; human, plasma, oral, 1.2 mg/kg, 1.2 mg/kg BID, Day 1, capsule, read-out: Tmax): 3.5 h
- Cmax [2, 16]: 2110 ng/mL
- AUC [2, 16]: ~32900 ng·h/mL
- Tmax ([2]; human, plasma, oral, 1.2 mg/kg, 1.2 mg/kg BID, Day 7, capsule, read-out: Tmax): 4 h
- Cmax [2, 17]: 1670 ng/mL
- AUC [2, 17]: 37100 ng·h/mL
- Cmax [2, 18]: 3530 ng/mL
- AUC [2, 18]: 78600 ng·h/mL
- effect of exogenous uridine on PTC299-dependent cytotoxicity [3]: reversal of the effects of PTC299-dependent cytotoxicity by the addition of exogenous uridine
- EC50 [4]: 36 nM
- bioavailability [5]: ~40%
- in vivo rat micronucleus assay [6]: negative
- EC50 [7]: 4 nM
- time to steady state [8]: ~15 days
- inhibition at 0.01 µM ([9]; read-out: % Inhibition IL-8): 27%
- inhibition at 0.01 µM ([9]; read-out: % Inhibition MCP-1): 31%
- inhibition at 0.1 µM ([9]; read-out: % Inhibition CD40): 29%
- inhibition at 0.1 µM ([9]; read-out: % Inhibition IL-8): 29%
- inhibition at 0.1 µM ([9]; read-out: % Inhibition MCP-1): 45%
- inhibition at 0.1 µM ([9]; read-out: % Inhibition Proliferation): 23%
- EC50 (West Nile virus): 10 nM
- concentration at 4 h [10]: 1900 ng/mL
